Laboratory results from patent publication US20240025856A1, “1,2,3,4-TETRAHYDROQUINOLINE DERIVATIVES AS INHIBITORS OF THE YAP/TAZ-TEAD ACTIVATION FOR TREATING CANCER” (KATHOLIEKE UNIVERSITEIT LEUVEN, priority 2020, published 2024).

Tests used:
Format in all cases: cell-based
NCI-1H226 = assay: Mesothelioma cell line proliferation assay, H226 (ATPlite); conditions: Homo sapiens, NCI-H226, 144 h, 6 days with compound
Description: (§1) Mesothelioma cell lines, NCI-1H226 and NCI-1H2052 (all sourced from the ATCC cell culture collection) are plated in 96-well plates (Corning® 96 Well White Polystyrene Microplate clear flat bottom, white polystyrene (TC-Treated)), at 1500 cells/well in full medium (RPMI 1640 ATCC modification with L-glutamine, HEPES, Phenol Red, Sodium Pyruvate, High glucose, Low sodium bicarbonate and 10% fetal bovine serum). Cells are incubated overnight at 37° C. in an incubator with 5% C02. Then compounds, dissolved in DMSO, are added in dose-response. Cells are incubated with compound dilutions for another 6 days at 37° C. in an incubator with 5% C02. Cell viability is quantitated using the ATPlite kit (Perkin-Elmer) and the luminescence is read-out using an Envision instrument (Perkin-Elmer). The amount of relative light units produced using the ATPlite kit is used to calculated percent of inhibition.
(§2) The activities of some example compounds are depicted in the table below. The activity ranges A, B and C refer to EC50 values in the mesothelioma cell line proliferation assay as described as follows: “A”: EC50<1 μM; “B”: 1 μM s EC50≤10 μM and “C”: EC50≥10 μM; NT: not tested.

NCI-1H2052 = assay: Mesothelioma cell line proliferation assay, H2052 (ATPlite); conditions: Homo sapiens, NCI-H2052, 144 h, 6 days with compound, read-out: H2025 (EC50)
Description: as §1, §2

KMRC3 = assay: Cancer cell line proliferation assay (CellTiter-Glo), KMRC3; conditions: 144 h, Kidney, LATS1 HOM DEL, 6 days
Description: (§3) All the cell lines are cultured in the media supplemented with 10-20% fetal bovine serum, in the temperature of 37° C., 5% CO2 and 95% humidity. The indicated cell lines (all sourced from the ATCC cell culture collection) are plated in 96-Well Flat Clear Bottom Black Polystyrene TC-Treated Microplates with the final cell density of 4×10^3 cells/well. Cells are incubated overnight and then compounds, dissolved in DMSO, are added in dose-response. Cells are incubated with compound dilutions for another 6 days. Cell viability is quantitated using CellTiter-Glo reagent (Perkin Elmer) and measured using an EnVision Multi Label Reader.

NCI-H226 = assay: Cancer cell line proliferation assay (CellTiter-Glo), NCI-H226; conditions: Homo sapiens, 144 h, Lung (mesothelioma), NF2 HOM DEL/LATS1 HOM DEL, 6 days
Description: as §3

SCC-9 = assay: Cancer cell line proliferation assay (CellTiter-Glo), SCC-9; conditions: Homo sapiens, 144 h, Head & neck (squamous), FAT1 HOM DEL, 6 days
Description: as §3

C-33 A = assay: Cancer cell line proliferation assay (CellTiter-Glo), C-33 A; conditions: Homo sapiens, 144 h, Cervical (squamous), L914Wfs*10 LATS2, 6 days
Description: as §3

Caov-3 = assay: Cancer cell line proliferation assay (CellTiter-Glo), Caov-3; conditions: Homo sapiens, 144 h, Ovary, LATS2 HOM DEL, 6 days
Description: as §3

GI50 (KMRC3): 20 nM
GI50 (NCI-H226): 40 nM
GI50 (SCC-9): 50 nM
GI50 (C-33 A): 100 nM
GI50 (Caov-3): 110 nM
SMILES: C=CC(=O)NC1Cc2ccccc2N(c2ccc(C(F)(F)F)cc2)C1 (stereo not shown) [compound 001, N-(1-(4-(trifluoromethyl)phenyl)-1,2,3,4-tetrahydroquinolin-3-yl)acrylamide]
EC50 (NCI-1H226): < 1000 nM
EC50 (NCI-1H2052): < 1000 nM
